Results from patent US20020049223A1, “Quinoline and naphthyridine carboxylic acid antibacterials” (priority 1999, published 2002).

Experiments:
[1] = test system: Enterococcus faecalis PIU 1967; test: Assay B: in vitro antibacterial activity, broth microdilution MIC (NCCLS); assay type: cell-based; conditions: Table 2, Assay B, cation-adjusted Mueller Hinton broth, 35° C., 16 to 20 hr; code B = Enterococcus faecalis PIU 1967; unit assumed
Method in brief: (§1)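 NCCLS broth microdilution with two-fold dilutions in cation-adjusted Mueller Hinton broth, inoculum about 5×10^5 CFU/mL, 35 °C in ambient air for 16-20 h; MIC read visually as lowest concentration completely inhibiting growth. S. pneumoniae: 3% lysed horse blood, 20-24 h; H. influenzae: 5 g/L yeast extract, 0.3 mmol/L hematin, 15 mg/L NAD, 20-24 h.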

[2] = test system: Streptococcus pneumoniae ATCC 6303; test: as above; assay type: cell-based; conditions: Table 2, Assay B, Mueller Hinton broth with 3% lysed horse blood, 20 to 24 hr; code F = Streptococcus pneumoniae ATCC 6303; unit assumed
Method in brief: as §1

Escherichia coli JUHL = test: as above; assay type: cell-based; conditions: Table 2, Assay B, cation-adjusted Mueller Hinton broth, 35° C., 16 to 20 hr; code D = Escherichia coli JUHL; unit assumed
Method in brief: as §1

[3] = test system: Staphylococcus aureus ATCC 6538P; test: as above; assay type: cell-based; conditions: Table 2, Assay B, cation-adjusted Mueller Hinton broth, 35° C., 16 to 20 hr; code A = Staphylococcus aureus ATCC 6538P; unit assumed
Method in brief: as §1

[4] = test system: Haemophilus influenzae DILL AMP R; test: as above; assay type: cell-based; conditions: Table 2, Assay B, Mueller Hinton broth with yeast extract, hematin and NAD, 20 to 24 hr; code E = Haemophilus influenzae DILL AMP R; unit assumed
Method in brief: as §1

melting point | Antibacterial Activity (MIC's), B [1] | Antibacterial Activity (MIC's), F [2] | Antibacterial Activity (MIC's), D (Escherichia coli JUHL) | Antibacterial Activity (MIC's), A [3] | Antibacterial Activity (MIC's), E [4] | SMILES
202 to 205 °C (dec.) | – | – | – | – | – | Br.COc1c(-c2cc3c(s2)CCNC3C)ccc2c(=O)c(C(=O)O)cn(C3CC3)c12 (stereo not shown)
– | 0.06 µg/mL | 0.125 µg/mL | 0.125 µg/mL | 0.008 µg/mL | 0.008 µg/mL | O=C(O)c1cn(C2CC2)c2c(Cl)c(-c3cc4c(s3)C(O)CCC4)ccc2c1=O (stereo not shown) [Example 315, 8-chloro-1-cyclopropyl-7-(7-hydroxy-4,5,6,7-tetrahydro-1-benzothien-2-yl)-4-oxo-1,4-dihydroquinoline-3-carboxylic acid]
– | 0.06 µg/mL | 0.03 µg/mL | 0.06 µg/mL | ≤ 0.004 µg/mL | ≤ 0.004 µg/mL | Cc1c(-c2cc3c(s2)CCCC3O)c(F)cc2c(=O)c(C(=O)O)cn(C3CC3)c12 (stereo not shown) [Example 316, 1-cyclopropyl-6-fluoro-7-(4-hydroxy-4,5,6,7-tetrahydro-1-benzothien-2-yl)-8-methyl-4-oxo-1,4-dihydroquinoline-3-carboxylic acid]
– | 0.06 µg/mL | 0.03 µg/mL | 0.06 µg/mL | 0.03 µg/mL | 0.03 µg/mL | CNC1CCCc2sc(-c3c(F)cc4c(=O)c(C(=O)O)cn(C5CC5)c4c3C)cc21.Cl (stereo not shown) [Example 317, 1-cyclopropyl-6-fluoro-8-methyl-7-(4-(methylamino)-4,5,6,7-tetrahydro-1-benzothien-2-yl)-4-oxo-1,4-dihydroquinoline-3-carboxylic acid hydrochloride]
– | 0.06 µg/mL | 0.03 µg/mL | 0.06 µg/mL | ≤ 0.004 µg/mL | 0.015 µg/mL | Nc1c(F)c(-c2cc3c(s2)C(O)CCC3)c(F)c2c1c(=O)c(C(=O)O)cn2C1CC1 (stereo not shown) [Example 319, 5-amino-1-cyclopropyl-6,8-difluoro-7-(7-hydroxy-4,5,6,7-tetrahydro-1-benzothien-2-yl)-4-oxo-1,4-dihydroquinoline-3-carboxylic acid]
– | 0.015 µg/mL | ≤ 0.004 µg/mL | 0.015 µg/mL | ≤ 0.004 µg/mL | ≤ 0.004 µg/mL | Cc1c(-c2cc3c(s2)CCCC3N)c(F)cc2c(=O)c(C(=O)O)cn(C3CC3)c12.Cl (stereo not shown) [Example 321, 7-(4-amino-4,5,6,7-tetrahydro-1-benzothien-2-yl)-1-cyclopropyl-6-fluoro-8-methyl-4-oxo-1,4-dihydroquinoline-3-carboxylic acid hydrochloride]
– | 0.25 µg/mL | 0.125 µg/mL | 0.125 µg/mL | 0.125 µg/mL | 0.015 µg/mL | Cl.NC1CCCc2cc(-c3cc(F)c4c(=O)c(C(=O)O)cn(C5CC5)c4c3F)sc21 (stereo not shown) [Example 326, 7-(7-amino-4,5,6,7-tetrahydro-1-benzothien-2-yl)-1-cyclopropyl-5,8-difluoro-4-oxo-1,4-dihydroquinoline-3-carboxylic acid hydrochloride]
– | 0.03 µg/mL | 0.008 µg/mL | 0.03 µg/mL | ≤ 0.004 µg/mL | 0.008 µg/mL | Cl.NC1CCCc2sc(-c3ccc4c(=O)c(C(=O)O)cn(C5CC5)c4c3Cl)cc21 (stereo not shown) [Example 329, 7-(4-amino-4,5,6,7-tetrahydro-1-benzothien-2-yl)-8-chloro-1-cyclopropyl-4-oxo-1,4-dihydroquinoline-3-carboxylic acid hydrochloride]
– | 0.06 µg/mL | 0.03 µg/mL | 0.03 µg/mL | 0.015 µg/mL | 0.008 µg/mL | Cl.NC1CCCc2cc(-c3ccc4c(=O)c(C(=O)O)cn(C5CC5)c4c3Cl)sc21 (stereo not shown) [Example 330, 7-(7-amino-4,5,6,7-tetrahydro-1-benzothien-2-yl)-8-chloro-1-cyclopropyl-4-oxo-1,4-dihydroquinoline-3-carboxylic acid hydrochloride]
– | 0.25 µg/mL | 0.125 µg/mL | 0.5 µg/mL | 0.03 µg/mL | 0.25 µg/mL | CC1(C)CCc2cc(-c3cc4c(cc3F)c(=O)c(C(=O)O)cn4C3CC3)sc2C1O (stereo not shown) [Example 342, 1-cyclopropyl-6-fluoro-7-(7-hydroxy-6,6-dimethyl-4,5,6,7-tetrahydro-1-benzothien-2-yl)-4-oxo-1,4-dihydroquinoline-3-carboxylic acid]
– | 0.03 µg/mL | 0.008 µg/mL | 0.125 µg/mL | ≤ 0.004 µg/mL | 0.015 µg/mL | CNC1CCCc2sc(-c3c(F)c(N)c4c(=O)c(C(=O)O)cn(C5CC5)c4c3F)cc21.Cl (stereo not shown) [Example 346, 5-amino-1-cyclopropyl-6,8-difluoro-7-(4-(methylamino)-4,5,6,7-tetrahydro-1-benzothien-2-yl)-4-oxo-1,4-dihydroquinoline-3-carboxylic acid hydrochloride]
– | 0.25 µg/mL | 0.125 µg/mL | 0.25 µg/mL | 0.03 µg/mL | 0.06 µg/mL | CC1(C)CCc2cc(-c3ccc4c(=O)c(C(=O)O)cn(C5CC5)c4c3Cl)sc2C1N.Cl (stereo not shown) [Example 347, 7-(7-amino-6,6-dimethyl-4,5,6,7-tetrahydro-1-benzothien-2-yl)-8-chloro-1-cyclopropyl-4-oxo-1,4-dihydroquinoline-3-carboxylic acid hydrochloride]
– | 0.125 µg/mL | 0.03 µg/mL | 0.25 µg/mL | 0.015 µg/mL | 0.06 µg/mL | COc1c(-c2cc3c(s2)C(N)C(C)(C)CC3)c(F)cc2c(=O)c(C(=O)O)cn(C3CC3)c12.Cl (stereo not shown) [Example 348, 7-(7-amino-6,6-dimethyl-4,5,6,7-tetrahydro-1-benzothien-2-yl)-1-cyclopropyl-6-fluoro-8-methoxy-4-oxo-1,4-dihydroquinoline-3-carboxylic acid hydrochloride]
– | 0.125 µg/mL | 0.03 µg/mL | 0.03 µg/mL | 0.015 µg/mL | ≤ 0.004 µg/mL | Nc1cc(-c2cc3c(s2)C(N)CCC3)c(F)c2c1c(=O)c(C(=O)O)cn2C1CC1.O=C(O)C(F)(F)F (stereo not shown) [Example 349, 5-amino-7-(7-amino-4,5,6,7-tetrahydro-1-benzothien-2-yl)-1-cyclopropyl-8-fluoro-4-oxo-1,4-dihydroquinoline-3-carboxylic acid trifluoroacetic acid salt]
– | 0.06 µg/mL | 0.03 µg/mL | 0.06 µg/mL | 0.015 µg/mL | 0.015 µg/mL | CNC1CCCc2sc(-c3ccc4c(=O)c(C(=O)O)cn(C5CC5)c4c3Cl)cc21.Cl (stereo not shown) [Example 361, 8-chloro-1-cyclopropyl-7-(4-(methylamino)-4,5,6,7-tetrahydro-1-benzothien-2-yl)-4-oxo-1,4-dihydroquinoline-3-carboxylic acid hydrochloride]
– | 0.125 µg/mL | 0.03 µg/mL | 0.06 µg/mL | 0.015 µg/mL | 0.03 µg/mL | Cc1c(F)c(-c2cc3c(s2)CCCC3N)nc2c1c(=O)c(C(=O)O)cn2C1CC1.Cl (stereo not shown) [Example 367, 7-(4-amino-4,5,6,7-tetrahydro-1-benzothien-2-yl)-1-cyclopropyl-6-fluoro-5-methyl-4-oxo-1,4-dihydro-1,8-naphthyridine-3-carboxylic acid hydrochloride]
– | 0.06 µg/mL | 0.03 µg/mL | 0.03 µg/mL | 0.015 µg/mL | ≤ 0.004 µg/mL | Cc1c(-c2cc3c(s2)C(N)CCC3)c(F)cc2c(=O)c(C(=O)O)cn(C3CC3)c12.Cl (stereo not shown) [Example 368, 7-(7-amino-4,5,6,7-tetrahydro-1-benzothien-2-yl)-1-cyclopropyl-6-fluoro-8-methyl-4-oxo-1,4-dihydroquinoline-3-carboxylic acid hydrochloride]
– | 0.03 µg/mL | 0.03 µg/mL | 0.06 µg/mL | ≤ 0.004 µg/mL | ≤ 0.004 µg/mL | Cc1c(-c2cc3c(s2)C(O)CCC3)c(F)cc2c(=O)c(C(=O)O)cn(C3CC3)c12 (stereo not shown) [Example 369, 1-cyclopropyl-6-fluoro-7-(7-hydroxy-4,5,6,7-tetrahydro-1-benzothien-2-yl)-8-methyl-4-oxo-1,4-dihydroquinoline-3-carboxylic acid]
– | 0.03 µg/mL | ≤ 0.004 µg/mL | 0.06 µg/mL | ≤ 0.004 µg/mL | 0.03 µg/mL | Cc1c(F)c(-c2cc3c(s2)C(N)CCC3)nc2c1c(=O)c(C(=O)O)cn2C1CC1.Cl (stereo not shown) [Example 371, 7-(7-amino-4,5,6,7-tetrahydro-1-benzothien-2-yl)-1-cyclopropyl-6-fluoro-5-methyl-4-oxo-1,4-dihydro-1,8-naphthyridine-3-carboxylic acid hydrochloride]
